The experiment addresses Aurora kinase B (Homo sapiens, UniProt Q96GD4). Briefly: Isothermal Titration Calorimetry (ITC). Conditions: pH 8; 25 °C. On the procedure: Calorimetric titrations were performed in a Microcal iTC 200 microcalorimeter. Freshly purified 5 µM protein (Aurora A/B kinases) was titrated against 100 µM ligand (felodipine/ PTK66) in each case at 25 °C. Proteins and the ligandswere diluted in the final dialysate (20 mM Tris-HCl, pH 8.0, 0.2 mM EDTA and 100 mM KCl) against which the proteins were extensively dialysed to avoid any artefact due to the minor differences in buffer composition. DMSO content was kept exactly same in the cell (not exceeding 0.2% v/v) and syringe to rule out any interference due to DMSO content mismatch. All samples were thoroughly degassed prior to titration and were prepared with the same batch of dialysate to avoid any artefacts from the minor differences in buffer composition. Dilutions of 100 µM felodipine/PTK66 in dialysate containing equal percentage of DMSOserved as controls. The stirring speed was 300 rpm.
In general terms: Isothermal titration calorimetry measures the heat released or taken up as one component is titrated into another.

“And” between values parts separate entries of the source, which are not always exact repeats. Equal entries are not always repeated.

One may read the Kd as the constant that tells how readily two partners part at equilibrium. A lower Kd goes with higher affinity.

Sequence of Aurora kinase B (Q96GD4 whole entry): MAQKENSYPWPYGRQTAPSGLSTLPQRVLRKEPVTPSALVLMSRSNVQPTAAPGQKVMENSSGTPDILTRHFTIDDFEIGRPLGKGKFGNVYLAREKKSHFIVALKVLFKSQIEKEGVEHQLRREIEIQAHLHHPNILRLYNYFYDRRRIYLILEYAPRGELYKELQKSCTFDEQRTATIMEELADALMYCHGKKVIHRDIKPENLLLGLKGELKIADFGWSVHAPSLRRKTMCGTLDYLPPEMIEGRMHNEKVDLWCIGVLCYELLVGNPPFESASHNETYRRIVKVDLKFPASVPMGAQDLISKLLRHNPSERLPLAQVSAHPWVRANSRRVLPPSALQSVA

`CCOC(=O)C1=C(C)NC(C)=C(C(=O)OC)[C@H]1c1cccc(Cl)c1Cl` [5-O-ethyl 3-O-methyl 4-(2,3-dichlorophenyl)-2,6-dimethyl-1,4-dihydropyridine-3,5-dicarboxylate] registered a Kd of 1140 nM. That is a single-digit micromolar value.

Regarding `Cc1cc(O)cc(O)c1/N=N/c1nccs1` [5-methyl-4-(2-thiazolylazo)resorcinol], the Kd is 1750 nM and 500 nM.
